Measured values published in article PMC9042801 (RSC Advances, 2021).

Columns and labels:
[1] = in vitro; settings: dog
[2] = tested on: influenza virus A/Puerto Rico/8/34 (H1N1); settings: for SI (CC50/IC50): influenza virus A/Puerto Rico/8/34 (H1N1), MDCK cells
[3] = tested on: herpes simplex virus type 1 (HSV-1, strain VR-3); assay: Antiviral activity against HSV-1 on Vero cells; type: cell-based; settings: HSV-1, Vero cells, moi 0.01, 3 days
[4] = tested on: bovine diarrhea virus (BDV) (strain VC-1); assay: Antiviral activity against BDV on CCV cells; type: cell-based
[5] = tested on: vaccine virus (VV, strain Copenhagen); assay: organism not typed; type: cell-based
[6] = tested on: MDCK cell line; settings: MTT, 72 h
[7] = CC50, MDCK cell line, MTT, 72 h

CSc1ccc(-c2c(C(F)(F)F)n(C)n(-c3ccccc3)c2=O)cc1 [Compound 3g]
CC50 [1, 7]: 263 ± 19 µM
IC50 [2]: > 91 µM

Cn1c(C(F)(F)C(F)(F)F)c(I)c(=O)n1-c1ccccc1 [Compound 5b]
CC50 [1, 7]: 378 ± 26 µM

Cn1c(C(F)(F)F)c(I)c(=O)n1-c1ccccc1 [Compound 5a, 4-iodo-5-trifluoromethyl-antipyrine]
IC50 [3]: Inactive
IC50 ([4]; 72 h): 46.9 ± 2 µM
SIVDC (selectivity index) ([4]; BDV, CCV cells): 6.4
activity against bovine diarrhea virus (strain VC-1), in words ([4]; CCV cells): weak activity
CC50 [1, 7]: > 815 µM
SIBOB (selectivity index) ([5]; VV, Vero cells): 2.9
activity against the vaccine virus (strain Copenhagen), in words ([5]; Vero cells): weak activity
IC50 ([5]; Vero, 72 h): 103 ± 10 µM

Cn1c(C(F)(F)F)c(C#Cc2ccccc2)c(=O)n1-c1ccccc1 [Compound 6a, 1-methyl-2-phenyl-4-(phenylethynyl)-5-(trifluoromethyl)-1,2-dihydro-3H-pyrazol-3-one]
CC50 [6]: > 877 µM
CC50 [1, 7]: > 815 µM
SI (CC50/IC50) [2]: 15

NC(=O)c1ncn([C@@H]2O[C@H](CO)[C@@H](O)[C@H]2O)n1 [Ribavirin, reference compound]
CC50 [1]: > 2130 µM
SI (CC50/IC50) [2]: 59
